For 18 molecules, TGI and GI50 results are on record in PubChem BioAssay (NCI).

Common to all, as to assay: growth of human tumour cells (NCI), 48 h
Assay [1] concerns OVCAR-4 ovarian.
Assay [2] relates to OVCAR-5 ovarian.
Assay [3] has as its system NCI-H460 lung.
Assay [4] has as its system 786-0 renal.
In assay [5] the test system is HCT-116 colon.
The test system of assay [6] is SK-MEL-28 melanoma.
In assay [7] the test system is IGROV1 ovarian.
Assay [8] concerns COLO 205 colon.
For assay [9], the system named is HCC-2998 colon.
In assay [10] the test system is A549 NSCLC.

Each structure is given as a SMILES string.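 Interpolation was linear, between the two tested concentrations surrounding the appropriate level; five concentrations were tested over 48 hours in 96-well plates. Abbreviation: GI50, concentration required for 50% inhibition of growth. TGI marks complete inhibition of growth.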

As for `COC(OC)c1cc2c(cc1C(=O)[C@@]13CCC[C@@H]1NC(=O)O3)OCO2`, the TGI in [1], in assay [2], in assay [3], in assay [4], in [5] and in assay [6] was greater than 100 µM throughout. Also, the TGI in assay [7] is greater than 100 µM.

With `CC(=O)C1C(=O)N(C(C)C)C[C@@H]2CCC(=O)C[C@H]12` (stereo partly drawn), the TGI in [1], in assay [3], in assay [8], in assay [4], in assay [5] and in assay [9] was greater than 100 µM throughout. The TGI in [6], in assay [7] and in assay [10] was greater than 100 µM each time.

As for `C/C(CC(=O)N(C(C)C)C(C)C)=N\NC(=O)c1ccncc1`, the TGI in assay [1], in [8], in [4], in assay [5], in [9] and in assay [6] was greater than 100 µM throughout. Further, the TGI in [7] and in assay [10] was greater than 100 µM in each case.

`CC1=C(C(=O)Nc2ccc(Cl)c(Cl)c2)C(c2ccccc2O)NC(=O)N1` (stereo not drawn): the GI50 in [1] was 42.7 µM; in assay [2], greater than 50 µM; in assay [3] it was greater than 50 µM; in assay [8], 28.3 µM; in [4] it was greater than 50 µM; in assay [6], greater than 50 µM. Further, the GI50 in [7] and in [10] was greater than 50 µM throughout. In addition, the TGI in assay [1], in [2], in [3], in [8], in [4] and in assay [6] was greater than 50 µM in each case. The TGI in assay [7] and in [10] was greater than 50 µM throughout.

On to `OCNCCNc1nc2ccccc2c2[nH]c3ccccc3c12`, for which the GI50 in [2] is 0.582 µM; in assay [3], 1.46 µM; in assay [8], 1.76 µM; in [4], 0.34 µM; in assay [5] it was 0.186 µM; in [6] it was 1.01 µM. For the same molecule, in assay [7], the GI50 was 1.14 µM. In addition, the TGI was 6.75 µM in assay [2]; 5.8 µM in assay [3]; greater than 50 µM in assay [8]; 2.35 µM in assay [4]; 1.14 µM in assay [5]; 6.84 µM in [6]. The molecule further had a TGI in [7] of 7.31 µM.

As for `COc1cccc(C2NC(=S)NC(C)=C2C(=O)Nc2ccc(Cl)c(Cl)c2)c1` (stereo not drawn), the GI50 was 12.8 µM in assay [1]; 28.7 µM in [2]; 8.21 µM in assay [3]; 9.41 µM in [8]; 10.7 µM in assay [4]; 8.47 µM in assay [5]. Also, the GI50 is 13.3 µM in assay [6], 11.3 µM in assay [7] and 17.9 µM in [10]. Besides, the TGI was greater than 50 µM in assay [1]; greater than 50 µM in assay [2]; 16.3 µM in assay [3]; 30.5 µM in assay [8]; 24 µM in [4]; 15.9 µM in assay [5]. The results for the TGI in assay [6], in assay [7] and in assay [10] were 47.7 µM, 28.5 µM and greater than 50 µM, respectively.

On to `COc1ccc(C2CCc3cc4c(cc3/C2=N/OC(C)=O)OCO4)cc1OC` (stereo not drawn), for which the TGI in assay [1] was greater than 100 µM; in assay [2], greater than 100 µM; in [8], 63.5 µM; in [4], greater than 100 µM; in assay [5], 28.1 µM; in assay [6], 57.4 µM. In addition, the TGI in assay [7] is greater than 100 µM; in assay [10], 80.1 µM.

Turning to `CC1(C)CC[C@]2(C(N)=O)CC[C@]3(C)C(=CC[C@@H]4[C@@]5(C)C/C(=C/c6ccncc6)C(=O)C(C)(C)[C@@H]5CC[C@]43C)[C@@H]2C1`, the GI50 is 3 µM in [1]; 1.61 µM in [2]; 2.25 µM in assay [4]; 1.49 µM in assay [5]; 1.87 µM in [9]; 1.81 µM in assay [6]. Further, the GI50 in [7] was 2.29 µM; in [10], 2.35 µM. Moreover, the TGI in assay [1] is greater than 100 µM; in assay [2], 3.16 µM; in assay [4], 7.62 µM; in assay [5], 2.99 µM; in assay [9], 3.45 µM; in assay [6], 3.39 µM. Besides, the values for the TGI in assay [7] and in [10] were 6.6 µM and 8.22 µM, respectively.

As to `COc1cc(NC(=O)Nc2cnc(Nc3ccc(N4CCOCC4)cc3)nc2Oc2cccc(OC)c2)cc(OC)c1`, the GI50 in assay [1] was 1.13 µM; in assay [2] it was 6.49 µM; in assay [3], 1.12 µM; in assay [4], 0.928 µM; in assay [5] it was 1.1 µM; in assay [9], 1.32 µM. Moreover, the figures for the GI50 in assay [6], in [7] and in assay [10] were 1.61 µM, 1.8 µM and 1.99 µM, respectively. Also, the TGI was 2.69 µM in assay [1]; 41.6 µM in [2]; 2.27 µM in assay [3]; 1.88 µM in assay [4]; 2.74 µM in assay [5]; 3.62 µM in assay [9]. Also, the TGI in assay [6] was found to be 6.21 µM; in assay [7], 7.77 µM; in [10], 6.47 µM.

Consider `COc1cc2cc3c4c(cc(OC)c(OC)c4c2cc1OC)CCN3C(=O)CCC(=O)NCCCN(C)C`, for which the TGI in assay [1], in [3], in assay [8], in [4], in [5] and in [9] was greater than 100 µM each time. In addition, the TGI in assay [6], in [7] and in [10] was greater than 100 µM each time.

Consider `COC(=O)CC(C(C(C)=O)C(=O)OCc1ccccc1)N1C(=O)OCC1c1ccccc1` (stereo not drawn), for which the TGI in [1], in [3], in [8], in [4], in [5] and in assay [9] was greater than 100 µM throughout. Besides, the TGI in assay [6], in assay [7] and in assay [10] was greater than 100 µM each time.

For the molecule `CC1OC(OC2CCC3(C=O)C4CCC5(C)C(C6=CC(=O)OC6)CCC5(O)C4CCC3(O)C2)C(O)C(O)C1O` (stereo not drawn), the TGI in [1] was determined as 3.33e-05 µM; in [3] it was 3.81e-05 µM; in assay [8], 0.0025 µM; in assay [4], 3.2e-05 µM; in assay [6], 0.000135 µM; in assay [7], 0.0179 µM. The GI50 in [2] is 0.0112 µM.

Turning to `COc1nc(NC2OC(COC(C)=O)C(OC(C)=O)C(OC(C)=O)C2OC(C)=O)c(-c2csc(N)n2)c(=O)n1C` (stereo not drawn), the TGI is greater than 100 µM in assay [1]; greater than 100 µM in assay [2]; greater than 100 µM in assay [3]; greater than 100 µM in assay [8]; 54.6 µM in assay [4]; greater than 100 µM in assay [5]. Moreover, the TGI in assay [6], in assay [7] and in assay [10] was greater than 100 µM in each case.

On to `CCC1CNC(=O)CC1CC(=O)OC` (stereo not drawn), for which the TGI in [1], in assay [2], in assay [4], in assay [5], in assay [9] and in assay [6] was greater than 100 µM each time. Further, the TGI in assay [7] and in assay [10] was greater than 100 µM throughout.

With `CC1CC2(C)CC(=O)C1C1C(=O)N(CCN3CCCCC3)C(=O)C12` (stereo not drawn), the GI50 in assay [1], in assay [2], in assay [8], in assay [4], in [5] and in [9] was greater than 100 µM each time. Further, the GI50 in assay [7] and in assay [10] was greater than 100 µM each time. In addition, the TGI in assay [1], in [2], in [8], in assay [4], in [5] and in assay [9] was greater than 100 µM in each case. Also, the TGI in assay [7] and in assay [10] was greater than 100 µM in each case.

With `CC(NC(=O)c1ccccc1)(C(=O)O)C(=O)O`, the TGI in assay [1], in [2], in [3], in assay [8], in assay [4] and in assay [5] was greater than 100 µM throughout. For the same molecule, the TGI in assay [6], in assay [7] and in [10] was greater than 100 µM in each case.

In the case of `COc1cc2c(c(OC)c1OC)-c1ccc(SC)c(=O)cc1[C@@H](NC(=O)c1ccc(Cl)cc1)CC2`, the TGI in assay [1] is greater than 100 µM; in assay [3], 10.5 µM; in assay [8], 0.0265 µM; in assay [4], 15.8 µM; in assay [5], 11.3 µM; in assay [9], less than 0.01 µM. Moreover, the TGI in assay [6], in [7] and in assay [10] was greater than 100 µM in each case.

Regarding `CCCCCCCCCCCCOP(N)(=O)OCCCCCCCCCCCC`, the TGI in assay [3], in assay [8], in assay [4], in [5], in assay [9] and in assay [6] was greater than 100 µM throughout. Also, the TGI in assay [7] and in assay [10] was greater than 100 µM throughout.
